According to patent publication EP3027213B1, “COMPOSITIONS FOR AMELIORATING AND/OR PREVENTING ADVERSE SIDE EFFECTS IN ANTIBIOTIC THERAPY” (priority 2013, dated 2015):
Entries after “also recorded” stand apart in the source; their conditions may differ. Where two headings read alike, the source gives them in different places.

How the values were obtained:
[1] = system: human HT29 rho zero cell line; experiment: Growth of rho zero cells with alternative pyruvate or uridine sources, phase contrast microscopy (Example 5, Fig. 6); assay type: cell-based; settings: day 9
Procedure: Side effects of antibiotics can be ameliorated by administration of pyruvate and uridine. This observation can be further substantiated by applying alternative pyruvate or uridine sources, as for example alanine and uridine monophosphate (UMP). • Alternative pyruvate source: To challenge this hypothesis, cells devoid of mitochondrial DNA (rho zero cells) resembling cells that were treated with the antibiotics and have lost their mitochondrial encoded proteins, were cultured in the presence of uridine, alanine and uridine or pyruvate and uridine. […] Cells growth medium was supplemented with uridine (0.2 mM uridine) or alanine (1-10 mM alanine) and uridine (0.2 mM uridine) or pyruvate (1 mM sodium pyruvate) and uridine (0.2 mM uridine) (see figure 6a). […] Thus, pyruvate can be substituted by alternative pyruvate sources to ameliorate side effects of antibiotics. • Alternative uridine source: To challenge this hypothesis, cells devoid of mitochondrial DNA (rho zero cells) resembling cells that were treated with the antibiotics and have lost their mitochondrial encoded proteins, were cultured in the presence of UMP, alanine and UMP or pyruvate and UMP. […] Cells growth medium was supplemented with UMP (0.2 mM UMP) or alanine (1-10 mM alanine) and UMP (0.2 mM UMP) or pyruvate (1 mM sodium pyruvate) and UMP (0.2 mM UMP) (see figure 6b). […] Thus, UMP can be substituted by alternative pyrimidine source to ameliorate side effects of antibiotics.

[2] = system: GFP-colorized 143B.TK- cells; assay type: cell-based; settings: human, 13 days, 150 µg/ml
From the text: (§1) The panels display co-cultures grown on petri-dishes that contain a human dermal fibroblast (HDF) monolayer inoculated with GFP-colorized 143B.TK- cells imaged by fluorescence microscopy and phase contrast microscopy. The HDF cells represent a resting post-mitotic tissue, while the GFP-colorized 143B.TK- cells mimic mitotic active cells. • Figure 1b, left panel: Without pyruvate and uridine, the side effect of chloramphenicol (or linezolid, or tigezycline) can be visualized on co-cultures similarly to the effect seen in figure 1. Approximately at day 4 of culture, the mitotic active colony enlarges and experiences growth retardation. […] The mitotic cells grow completely regularly. At day 8, the entire area is overgrown by the GFP-colorized 143B.TK^- cells.
(§2) To understand the influence of the antibiotic on cell cycles state, a co-culture was established that was based on a primary fibroblasts monolayer (mimicking cells at resting state) that was inoculated with 143B.TK^- cells (mimicking cells in mitotic state, dividing cells).
(§3) However, the fibroblast layer was completely unaffected and vital to start regrowth again (proven by executing scratches through the monolayer; "wound-healing" set in immediately). […] Both side-effects could be removed by co-administering uridine and/or pyruvate or derivatives thereof.

143B.TK^- cells [3] = experiment: cells; assay type: cell-based; settings: Homo sapiens, 240 h, chloramphenicol 50 nM - 300 µM, 10 days
Procedure: The half maximal inhibitory concentration (IC50) is a measure of the effectiveness of a compound in inhibiting biological or biochemical function. This quantitative measure indicates, how much of a particular drug or compound is needed to inhibit a given biological process by half. In this case, the IC50 value was determined for the side-effect of the antibiotic on human cells in the presence or absence of pyruvate and/or uridine. IC50 values were determined utilizing resazurin (Cell-Quanti-Blue Cell Viability Assay Kit, Biotrend Chemikalien GmbH, Köln), a fluorescent dye indicating vital living or dead cells. For the experiment, 24-well culture dishes were seeded with a dilution of 143B.TK^- cells (10^3 cells each). The culture medium was composed of DMEM FG0445 (containing sodium pyruvate, high-glucose, glutamine; at the discretion of the supplier) supplemented with 5% FCS and 0.5 % uridine. After an initial growth of two days, cells were washed in PBS. From here, cells were grown in DMEM F0435 (containg high-glucose, without pyruvate, without glutamine; at the discretion of the supplier) supplemented with 2 % glutamine and 5% FCS. Depending on the subsequent experiments, cell growth medium was further supplemented with: • 1. w/o chloramphenicol, w/o pyruvate, w/o uridine • 2. w chloramphenicol (50 nM - 300 µM), w/o pyruvate, w/o uridine • 3. w chloramphenicol (50 nM - 300 µM), w/o pyruvate, w uridine (50 µg/ml) • 4. w chloramphenicol (50 nM - 300 µM), w pyruvate (100 µg/ml), w/o uridine • 5. w chloramphenicol (50 nM - 300 µM), w pyruvate (100 µg/ml), w uridine (50 µg/ml)
Growth medium was changed every 12 hours. The experiment was carried out for 10 days.
Measures of sets 2-5 were normalized by measure 1. Thus, when cell vitality under chloramphenicol treatment is similar to normal cell growth (measure 1), the ratio of (measure 2, 3, 4, 5) /(measure 1) expressed in % should stay close to 1. […] When pyruvate or pyruvate + uridine were added to the growth medium, IC50 of CAP was out of range (> 300 µM).

[4] = system: dsRED-colorized 143B.TK^-CAP-res cells; experiment: Co-culture with chloramphenicol-sensitive and -resistant cells: resistant cells (Fig. 1d); assay type: cell-based, human; settings: co-culture on HDF monolayer with 143B.TK^- cells, uridine and pyruvate not supplied
From the text: (§4) The panels display co-cultures grown on petri-dishes that contain a human dermal fibroblast (HDF) monolayer inoculated with GFP-colorized 143B.TK^- cells and dsRED-colorized 143B.TK^-CAP-res cells. The dsRED-colorized 143B.TK^-CAP-res cells contain a mitochondrial genotype that renders the cells chloramphenicol resistant.
(§5) To see whether or not the side-effect of these antibiotics reside within the mitochondria of the cell, a co-culture was established that was made of a primary fibroblast monolayer inoculated with 143B.TK^- and 143.TK^-CAP^res cells. The latter cell line is identical to the 143B.TK- cell line, except that these cells carry a CAP resistant mutation within the 16S rRNA gene located within the mitochondrial genome and are differently color coded.

[5] = system: GFP-colorized 143B.TK^- cells; assay type: cell-based; settings: human
From the text: as §4, §5

143B.TK^- cells [6] = assay type: cell-based, human
Procedure: Left panel: 143B.TK^- cells containing a green colorizing gene (GFP, green color) were seeded and grown to the original density in normal growth medium (left, 1). At day 1, medium was changed to allow cell growth under pyruvate and uridine free conditions; the medium was supplemented with chloramphenicol (or linezolid, or tigezycline; see example 1). […] At day 6 (image 3), the imaged colony starts to disperse and diminishes. At day 8 (image 4), cell number further declines and cells ceased to exist (day 10). Right panel: 143B.TK^- cells containing a green colorizing gene (GFP, green color) were seeded and grown to the original density in normal growth medium (right, 1). At day 1, medium was changed to allow cell growth under controlled pyruvate and uridine supply; the medium was supplemented with chloramphenicol (or linezolid, or tigezycline; see example 1).
In order to understand the side effects of antibiotics, we incubated cultured human cells with antibiotics that are known to impede cell's metabolism. The experiments were carried out with chloramphenicol, tigezycline or linezolid under otherwise identical conditions. […] Cells were treated with chloramphenicol (150 µg/ml culture medium, 450 µM; or linezolid, or tigezycline) and medium was exchanged on a daily basis. […] After additional 4 days, cells ceased to exist (see figure 1a).

[7] = system: human dermal fibroblast (HDF) monolayer; assay type: cell-based
From the text: as §1, §4, §2, §3

E. coli DH5α = experiment: Paper pad agar diffusion test, non-growth zone (Examples 2 and 3); assay type: cell-based; settings: LB plates as is or supplemented with uridine (50 µg/ml), sodium pyruvate (1 mM) or both; three concentrations; over night at 37°C
Procedure: (§6) Paper test pads (Rotiolabo, 6mm, Roth, Karlsruhe) were soaked with 7.5 µl of antibiotic-solution (concentrations used: 0.5 mM CAP; 0.77 mM CAP; 1.2 mM CAP; 0.15 mM LIN; 0.25 mM LIN; 0,4 mM LIN; 0.15 mM TIG; 0.25 mM TIG; 0.4 mM TIG) and placed on top of the agar plates (CAP- and LIN-solutions on APT/B. subtilis plates, TIG-solutions on LB/E. coli plates). Petri dishes were incubated over night at 37°C and analyzed by measuring the size of the non-growth zone of bacteria surrounding the antibiotics soaked paper pads (see figure 3a, and 3b).
(§7) Paper test pads (Rotiolabo, 6mm, Roth, Karlsruhe) were soaked with 7.5 µl of antibiotic-solution (concentrations used: 0.5 mM CAP; 0.77 mM CAP; 1.2 mM CAP; 0.15 mM LIN; 0.25 mM LIN, 0.4 mM LIN; 0.15 mM TIG, 0.25 mM TIG; 0.4 mM TIG; 0.5 mM CAP + 0.15 mM LIN; 0.77 mM CAP + 0.25 mM LIN; 1.2 mM CAP + 0.4 mM LIN; 0.5 mM CAP + 0.15 mM LIN + 0.15 mM TIG; 0.77 mM CAP + 0.25 mM LIN + 0.25 mM TIG; 1.2 mM CAP + 0.4 mM LIN + 0.4 mM TIG; 0.5 mM CAP + 0.15 mM TIG; 0.77 mM CAP + 0.25 mM TIG; 1.2 mM CAP + 0.4 mM TIG) and placed on top of the agar plates (CAP- and LIN-solutions on APT/B. subtilis plates, TIG-solutions on LB/E. coli plates). Petri dishes were incubated over night at 37°C and analyzed by measuring the size of the non-growth zone of bacteria surrounding the antibiotics soaked paper pads (see figure 2a, and 2b).

B. subtilis DSM 347 = experiment: as above; assay type: cell-based; settings: APT-plates as is or supplemented with uridine (50 µg/ml), sodium pyruvate (1 mM) or both; three concentrations; over night at 37°C
Procedure: as §6, §7

[8] = 0.2 mM uridine source alone, without any pyruvate source

Compound	cell growth [1, 8]	growth of the mitotic active colony [2]	cell growth (143B.TK^- cells [6])	cell growth (143B.TK^- cells [6]; human, 150 µg/ml)	cell vitality of the HDF monolayer [7]	Antibiotic effect (size of the non-growth zone) (E. coli DH5α)	Antibiotic effect (size of the non-growth zone) (B. subtilis DSM 347)	also measured
O=c1ccn([C@@H]2O[C@H](COP(=O)(O)O)[C@@H](O)[C@H]2O)c(=O)[nH]1 [UMP, uridine monophosphate]	did not exhibit cell growth; also recorded: cell growth stalls and comes to an halt	–	–	–	–	–	–	–
C[C@H](N)C(=O)O [alanine]	–	–	–	–	–	–	–	cell growth ([1]; on UMP supplemented media (0.2 mM UMP), alanine 1-10 mM or sodium pyruvate 1 mM): displayed regular cell growth; also recorded: cells prosper and grow almost in the same range as normal cells; cell growth ([1]; on uridine supplemented media (0.2 mM uridine), alanine 1-10 mM or sodium pyruvate 1 mM): displayed regular cell growth; also recorded: cells prosper and grow almost in the same range as normal cells
O=C(N[C@H](CO)[C@H](O)c1ccc([N+](=O)[O-])cc1)C(Cl)Cl [chloramphenicol]	–	finally ceases to exist at day 13	growth behavior of the cells was not altered by the antibiotic	cell growth retarded and came to a halt after 6 days	no change in cell vitality	independent of pyruvate, uridine or pyruvate + uridine supplementation	not rendered by the co-administered compounds uridine and/or pyruvate; also recorded: independent of pyruvate, uridine or pyruvate + uridine supplementation	IC50 (143B.TK^- cells [3]; w pyruvate (100 µg/ml), w uridine (50 µg/ml)): > 300 µM; IC50 (143B.TK^- cells [3]; w pyruvate (100 µg/ml), w/o uridine): > 300 µM; IC50 (143B.TK^- cells [3]; w/o pyruvate, w uridine (50 µg/ml)): 7.5 µM; IC50 (143B.TK^- cells [3]; w/o pyruvate, w/o uridine): 3.2 µM; cell growth [4]: exhibited no limitation in cell growth; also recorded: not influenced by the side-effect of chloramphenicol and grew regularly; cell growth ([4]; listed as CAP): not influenced by CAP; cell growth [5]: cells stopped growth after 4-5 days and ceased to exist after additional 6 days
CC(=O)NC[C@H]1CN(c2ccc(N3CCOCC3)c(F)c2)C(=O)O1 [linezolid]	–	finally ceases to exist at day 13	growth behavior of the cells was not altered by the antibiotic	cell growth retarded and came to a halt after 6 days	no change in cell vitality	–	not rendered by the co-administered compounds uridine and/or pyruvate; also recorded: independent of pyruvate, uridine or pyruvate + uridine supplementation	–
CN(C)c1cc(NC(=O)CNC(C)(C)C)c(O)c2c1C[C@H]1C[C@H]3[C@H](N(C)C)C(O)=C(C(N)=O)C(=O)[C@@]3(O)C(O)=C1C2=O [tigezycline]	–	finally ceases to exist at day 13	growth behavior of the cells was not altered by the antibiotic	cell growth retarded and came to a halt after 6 days	no change in cell vitality	not rendered by the co-administered compounds uridine and/or pyruvate; also recorded: independent of pyruvate, uridine or pyruvate + uridine supplementation	–	–
O=c1ccn([C@@H]2O[C@H](CO)[C@@H](O)[C@H]2O)c(=O)[nH]1 [uridine]	did not exhibit cell growth; also recorded: cell growth stalls and comes to an halt	–	–	–	–	–	–	–
